Laboratory results taken from patent US20260048081A1, “COMBINED TREATMENT COMPOSITION FOR TUMOR TREATMENT AND COMBINED TREATMENT METHOD” (ADVACCINE (SUZHOU) BIOPHARMACEUTICALS CO., LTD., priority 2022, published 2026).

Key:
[1] = system: B16-F10 mouse melanoma; experiment: Large-volume B16-F10 melanoma model, intratumoral injection: tumor volume and survival (Examples 10-13); assay type: in vivo
Description: To establish a B16-F10 mouse melanoma model, the tumor cells were inoculated at 3×10^5 cells/mouse. Once the tumors reached an appropriate size with an average of about 200 mm^3, suitable mice were selected based on the tumor size and body weight and given drugs according to the following groups. […] Specific groups were as follows: Group G1, normal saline (NS) control group: mice were treated once a week; Group G2: mice received an intratumoral injection of CDDP, followed by an intratumoral injection of CR108 two days later, once a week; Group G3: for each administration cycle, mice first received an intratumoral injection of CDDP, followed by an intratumoral injection of CR108 two days later, which was repeated every other day, with four administrations constituting one cycle, and after a one-week interruption, the next administration cycle was repeated; and Group G4: after CDDP and CR108 were mixed, mice received an intratumoral injection of the mixture, twice a week. After the administration was completed according to the flowchart, the administration was stopped, and the tumor size and physiological states of the mice were monitored during this period. When the tumor volume of each mouse exceeded 2000 mm^3 for the first time or the body weight of the animal was less than 80% of the body weight before the first administration, it was considered an ethical death, and the animal was euthanized. The remaining mice continued to be observed.
Experimental groups were as follows: (1) a normal saline control group, with the same administration protocol as that in Group G1 of Example 10; (2) CDDP^Hi+CR108 (at a cisplatin dose of 0.4 mg/kg), with the same administration protocol as that in Group G2 of Example 10 (qw); (3) CDDP^Lo+CR108 (at a cisplatin dose of 2 μg/kg), with the same administration protocol as that in Group G3 of Example 10 (qod); and (4) CDDP^Hi+CR108 (0.4 mg/kg cisplatin), with the same administration protocol as that in Group G3 of Example 10 (qod); the dose of CR108 used in each group was 50 μg/mouse CpG1018 and 50 μg/mouse water-soluble R848. […]

[2] = system: 4T1 breast cancer cell; assay type: in vivo; conditions: 2 μg/kg cisplatin (CDDP alone printed 2 g/kg), 50 μg/mouse CpG, 50 μg/mouse R848
[3] = system: B16-F10 mouse melanoma; experiment: B16-F10 mouse melanoma model, small-volume tumors (Example 9); assay type: in vivo; conditions: 4 mg/kg cisplatin, intraperitoneal injection, days 7, 14, 21
Description: This example further explored the effect of cisplatin combined with CR108 adjuvant on mouse melanoma. A B16-F10 mouse melanoma model was constructed by subcutaneously inoculating tumor cells on the right side of the back of the mice proximal to the hip position at 3×10^5 cells/mouse, […]
Specific mouse administration groups were as follows: (1) a PBS negative control group, (2) CDDP^Lo (2 μg/kg cisplatin), (3) CR108 (50 μg/mouse CpG1018 and 50 μg/mouse water-soluble R848), (4) CDDP^Lo+CR108 (2 μg/kg cisplatin, 50 μg/mouse CpG1018 and 50 μg/mouse water-soluble R848), (5) CDDP^Lo+C′ (2 μg/kg cisplatin and 50 μg/mouse CpG1018), (6) CDDP^Lo+R (2 μg/kg cisplatin and 50 μg/mouse water-soluble R848), and (7) CDDP^Hi (4 mg/kg cisplatin, regular cisplatin chemotherapeutic drug dose). Except for Group (7), which received a high dose of cisplatin by intraperitoneal injection, all other groups were administered by subcutaneous injection near the tumor. […]
On day 4 after the last administration, mice were sacrificed, tumor tissues of the mice were separated and weighed using an analytical balance; the weights were recorded, and the tumors were photographed for recording. […]

[4] = system: BALB/c mouse spleen cells; experiment: In vitro stimulation of mouse spleen cells to secrete TNF-α; assay type: cell-based; conditions: FIG. 9; stimulated 18-20 h; research-grade versus pharmaceutical grade reagent
Description: Drug preparation: The preparation and use of the research-grade reagents CpG1826 and R848 (water soluble) were the same as those in Example 1; the pharmaceutical agent R848 (lipid soluble) was dissolved in DMSO to prepare a 10 mg/mL stock solution, 0.1 mL of the stock solution was taken for each administration, the volume was brought to 1 mL, and a 1 mg/mL solution was prepared; CpG1018 was prepared at 1 mg/ml with PBS before each administration.
The spleens of three blank BABL/c mice were added to a 30 mm cell culture dish, 1640 medium was added, and the resulting mixture was ground, filtered through a copper screen, and centrifuged at 1500 rpm for 3 min. The supernatant was discarded, 2 mL of a red blood cell lysis buffer was added, and the samples were left to stand for 2 min, terminated with 4 mL of 1640+10% FBS, and centrifuged at 1500 rpm for 3 min. The supernatant was discarded, the samples were resuspended in 1640+10% FBS, and the cells were counted. The cells were plated in a 96-well cell culture plate at 2×10^6 cells/well, with 200 μL of culture medium per well. […] After the cells were stimulated for 18-20 h, the cell culture supernatant was collected, and the expression of cytokines in each 10^6 mouse spleen cells was determined by using a mouse TNF-α detection kit (purchased from NeoBioscience Technology Co., Ltd., Catalog No. EMC102a.96) according to the instructions.

[NH2][Pt]([NH2])([Cl])[Cl] [CDDP, cisplatin]
tumor volume compared with the normal saline control group ([1]; Example 12, FIG. 31, day 28, CDDP 4 mg/kg once a week, CR108 G3 protocol, CDDP+CR108 0.4 mg/kg cisplatin G3 protocol): significantly lower than that in the normal saline control group
day on which all mice were euthanized due to tumor volume exceeding 2000 mm^3 ([1]; Example 12, 4 mg/kg CDDP once a week): 36 days
median survival time ([1]; Example 12, CDDP 4 mg/kg once a week, CR108 alone G3 protocol, CDDP+CR108 0.4 mg/kg CDDP, not counted on day 45, saline control 26 days): 36 days
tumor volume growth curve ([2]; Example 7, FIG. 12, 6 mice per group): grew rapidly
tumor weight ([2]; Example 7, FIG. 13, end of the experiment): too large and overweight
mouse death during the administration period [3]: One mouse

CCOCc1nc2c(N)nc3ccccc3c2n1CC(C)(C)O [R848 (water soluble)]
levels of TNF-α cytokines produced from mouse spleen cells stimulated in vitro [4]: comparable
